In patent US11214594B2, “Antimicrobial peptide having synergistic antibacterial effect with antibiotics on multidrug resistant bacteria, and use thereof” (priority 2016, dated 2022):
Like-named read-outs stand apart in the source and are kept apart here. Where a SMILES comes first, the peptide text is derived from it. [ ]: non-standard residue; d: D form.

Key:
MDRST 8009 = format: cell-based, Salmonella typhimurium; settings: agent alone
Outline: (§1)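 Broth microdilution in MH medium: strains diluted to 2×10^6 CFU were mixed with equal volumes of twofold serial peptide dilutions in MH medium. MIC was taken as the lowest peptide concentration preventing bacterial growth.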

MDREC 1229 = format: cell-based, Escherichia coli
Outline: (§2)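 Strains in MH medium at 2×10^6 CFU/ml were mixed with peptide diluted stepwise (2:1) from its MIC, then antibiotic dilutions in MH medium were added to give the antibiotic MIC. The reversed set-up, peptide titrated against fixed antibiotic, gave the peptide MIC.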

E. coli = format: cell-based, Escherichia coli; settings: E. coli
Outline: as §2

MDRPA 2003 = format: cell-based, Pseudomonas aeruginosa
Outline: as §1

A. baumannii = experiment: MIC of antibiotic during combined treatment with antimicrobial peptide; format: cell-based, Acinetobacter baumannii; settings: for Antibiotic MIC, Erythromycin / Antibiotic MIC, Linezolid / Antibiotic MIC, Vancomycin: A. baumannii
Outline: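 Read-out is the MIC of each combined solution, obtained from MH-medium dilutions of antibiotic added well by well, with a reversed-condition run as well.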

P. aeruginosa = experiment: microbe, parasite or virus in culture; format: cell-based, Pseudomonas aeruginosa
Outline: as §1

MDRAB 12035 = experiment: MIC of antibiotic during combined treatment with antimicrobial peptide; format: cell-based, Acinetobacter baumannii
Outline: as §2

[1] = combined with peptide at 1 μg/ml
[2] = combined with peptide at 2 μg/ml
[3] = combined with peptide at 4 μg/ml
[4] = combined with peptide at 6 μg/ml
[5] = combined with peptide at 8 μg/ml
[6] = combined with peptide at 16 μg/ml
[7] = combined with peptide at 32 μg/ml
[8] = combined with peptide at 64 μg/ml
[9] = peptide treatment concentration 1 μg/ml
[10] = peptide treatment concentration 2 μg/ml
[11] = peptide treatment concentration 4 μg/ml
[12] = peptide treatment concentration 6 μg/ml
[13] = peptide treatment concentration 8 μg/ml

CC[C@H](C)[C@H](NC(=O)[C@H](CCCCN)NC(=O)[C@H](Cc1c[nH]c2ccccc12)NC(=O)[C@@H](N)CCCNC(=N)N)C(=O)N[C@@H](Cc1ccccc1)C(=O)N[C@@H](CCCCN)C(=O)N[C@@H](CCCCN)C(=O)N[C@H](C(=O)N[C@H](CCCCN)C(=O)N[C@@H](CCCCN)C(=O)N[C@@H](CC(C)C)C(=O)N[C@@H](CC(C)C)C(=O)N[C@@H](Cc1c[nH]cn1)C(=O)N[C@@H](CCC(=O)O)C(=O)N[C@@H](C)C(=O)N[C@@H](CCCCN)C(=O)N[C@@H](CCCCN)C(=O)N[C@@H](Cc1c[nH]c2ccccc12)C(N)=O)[C@@H](C)CC [PapMA-20, RWK IFK KIk KLL HEA KKW-NH2] (H-RWKIFKKI[dK]KLLHEAKKW-NH2; N-terminus assumed)
32 µg/mL: Antibiotic MIC, Erythromycin (A. baumannii; [1]) | Antibiotic MIC, Vancomycin (A. baumannii; [3]) | Erythromycin MIC during combined treatment with peptide (MDRAB 12035; [9]) | Linezolid MIC during combined treatment with peptide (MDRAB 12035; [11])
higher level than the PapMA-1 peptide: Synergistic effect of antibacterial activity with existing antibiotics compared with PapMA-1 (A. baumannii; A. baumannii and MDRAB 12035)
8 µg/mL: Antibiotic MIC, Linezolid (A. baumannii; [4]) | Antibiotic MIC, Vancomycin (A. baumannii; [4]) | Erythromycin MIC during combined treatment with peptide (MDRAB 12035; [11])
4 µg/mL: Peptide MIC during treatment with antibiotic (MDREC 1229; vancomycin […] (Conc./MIC 1/4)) | Peptide MIC during treatment with antibiotic (MDREC 1229; vancomycin […] (Conc./MIC 1/8)) | Erythromycin MIC during combined treatment with peptide (MDRAB 12035; [12]) | Linezolid MIC during combined treatment with peptide (MDRAB 12035; [13]) | Vancomycin MIC during combined treatment with peptide (MDRAB 12035; [13])
1 µg/mL: Peptide MIC during treatment with antibiotic (MDREC 1229; erythromycin […] (Conc./MIC 1/2)) | Peptide MIC during treatment with antibiotic (MDREC 1229; linezolid […] (Conc./MIC 1/2)) | Peptide MIC during treatment with antibiotic (MDREC 1229; vancomycin 1024 μg/ml (Conc./MIC 1)) | Antibiotic MIC, Erythromycin (A. baumannii; [4])
2 µg/mL: Peptide MIC during treatment with antibiotic (MDREC 1229; erythromycin 32 μg/ml (Conc./MIC 1/8)) | Peptide MIC during treatment with antibiotic (MDREC 1229; erythromycin 64 μg/ml (Conc./MIC 1/4)) | Peptide MIC during treatment with antibiotic (MDREC 1229; linezolid 64 μg/ml (Conc./MIC 1/8)) | Peptide MIC during treatment with antibiotic (MDREC 1229; linezolid […] (Conc./MIC 1/4)) | Peptide MIC during treatment with antibiotic (MDREC 1229; vancomycin 512 μg/ml (Conc./MIC 1/2)) | Antibiotic MIC, Erythromycin (A. baumannii; [3]) | Antibiotic MIC, Linezolid (A. baumannii; [5]) | Antibiotic MIC, Vancomycin (A. baumannii; [5])
64 µg/mL: Minimal inhibitory concentration MIC (MDRST 8009) | Minimal inhibitory concentration MIC (MDRPA 2003) | Antibiotic MIC, Linezolid (A. baumannii; [2]) | Minimal inhibitory concentration MIC (P. aeruginosa) | Vancomycin MIC during combined treatment with peptide (MDRAB 12035; [11])
0.5 µg/mL: Erythromycin MIC during combined treatment with peptide (MDRAB 12035; [13])
0.125 µg/mL: Antibiotic MIC, Erythromycin (A. baumannii; [5])
>128 µg/mL: Antibiotic MIC, Linezolid (A. baumannii; [1]) | Antibiotic MIC, Vancomycin (A. baumannii; [1]) | Antibiotic MIC, Vancomycin (A. baumannii; [2]) | Linezolid MIC during combined treatment with peptide (MDRAB 12035; [9]) | Vancomycin MIC during combined treatment with peptide (MDRAB 12035; [9]) | Vancomycin MIC during combined treatment with peptide (MDRAB 12035; [10])
16 µg/mL: Antibiotic MIC, Erythromycin (A. baumannii; [2]) | Antibiotic MIC, Linezolid (A. baumannii; [3]) | Erythromycin MIC during combined treatment with peptide (MDRAB 12035; [10]) | Linezolid MIC during combined treatment with peptide (MDRAB 12035; [12]) | Vancomycin MIC during combined treatment with peptide (MDRAB 12035; [12])
0 µg/mL: Peptide MIC during treatment with antibiotic (MDREC 1229; erythromycin […] (Conc./MIC 1)) | Peptide MIC during treatment with antibiotic (MDREC 1229; linezolid 512 μg/ml (Conc./MIC 1)) | Peptide MIC (E. coli; with Erythromycin […] (Conc./MIC 1)) | Peptide MIC (E. coli; with Linezolid […] (Conc./MIC 1)) | Peptide MIC (E. coli; with Vancomycin 1024 μg/ml (Conc./MIC 1)) | Antibiotic MIC, Erythromycin (A. baumannii; [6]) | Antibiotic MIC, Linezolid (A. baumannii; [6]) | Antibiotic MIC, Vancomycin (A. baumannii; [6]) | Antibiotic MIC, Erythromycin (A. baumannii; [7]) | Antibiotic MIC, Linezolid (A. baumannii; [7]) | Antibiotic MIC, Vancomycin (A. baumannii; [7]) | Antibiotic MIC, Erythromycin (A. baumannii; [8]) | Antibiotic MIC, Linezolid (A. baumannii; [8]) | Antibiotic MIC, Vancomycin (A. baumannii; [8]) | Erythromycin MIC during combined treatment with peptide (MDRAB 12035; peptide treatment concentration 16 μg/ml)
128 µg/mL: Linezolid MIC during combined treatment with peptide (MDRAB 12035; [10])
